{"source": "patent US9987294B2", "about": "“Mitochondria-targeted anti-tumor agents” (University of Massachusetts, priority 2007, dated 2018)", "key": {"[1]": {"tested_on": "HeLa cell mitochondria", "test": "Cytochrome c and Smac release from isolated tumor mitochondria (Western blotting)", "format": "biochemical, human", "description": "Tumor cell types were treated with controls or the various Hsp90 antagonists, and cytosolic extracts were harvested at increasing time intervals between 5-30 minutes and analyzed by Western blotting. For experiments in a cell-free system, purified mitochondria (20 μg) were suspended in 500 μl of SB buffer (0.2 M sucrose, 10 mM Tris-MOPS, pH 7.4, 5 mM succinate, 1 mM sodium phosphate, 10 μM EGTA-Tris, and 2 μM rotenone). Samples were treated with controls or the various Hsp90 antagonists for 20 minutes at 22° C. At the end of each incubation reaction, mitochondria and supernatants were separated by centrifugation at 6,000×g for 10 minutes, and analyzed by Western blotting."}, "[2]": {"tested_on": "Raji cells", "test": "Mitochondrial membrane potential in JC-1-loaded cells (flow cytometry)", "format": "cell-based, human", "conditions": "within five minutes of addition", "description": "Raji cells were treated with Shepherdin or control scrambled peptidomimetic (100 μM) or 17-AAG (5 μM), loaded with the mitochondrial membrane potential-sensitive fluorescent dye JC-1, and analyzed for changes in green/red fluorescence ratio by flow cytometry. For experiments in a cell-free system, purified mitochondria isolated from primary normal cells, various tumor cells types, or normal mouse organs were suspended in SB buffer. […] For these experiments, TMRM-loaded mitochondria in SB buffer were allowed to reach stable fluorescence, which was set as fully polarized state (maximum membrane potential). The fluorescence intensity after treatment with 2 mM CaCl2 was set as minimum membrane potential (fully depolarized state). Changes in fluorescence intensity after each treatment were plotted as a ratio between maximum and minimum membrane potential."}, "[3]": {"tested_on": "HeLa cells", "test": "Cytochrome c release into the cytosol of treated tumor cells (Western blotting)", "format": "cell-based, human"}, "[4]": {"tested_on": "tumor cells", "test": "Cell viability by MTT, tumor cell types", "format": "cell-based"}, "[5]": {"tested_on": "Akt, Chk1 and Hsp70 in HeLa cells", "test": "Hsp90 client protein and Hsp70 levels in treated cells (Western blotting)", "format": "cell-based, human", "conditions": "5 μM for 24 hours", "description": "In other experiments, chaperone-dependent GST-Chk1 reconstitution was determined as described previously (Arlander et al., “Chaperoning checkpoint kinase 1 (Chk1), an Hsp90 client, with purified chaperones,” J Biol Chem, 281:2989-2998 (2006)). Briefly, each sample contained 0.7 μg of resin-bound GST-Chk1 (residues 1-265), 1 μg of purified human Hsp90α, and the following amounts of other purified chaperone proteins: 10 μg Hsp70, 2 μg Hdj1, 2 μg p50^cdc37, 0.06 units CK2, 2.5 μg p60^Hop. Optical densities due to Chk1-dependent phosphorylation of Cdc25 in the presence and absence of Gamitrinib or 17-AAG were determined and plotted as fold activation above the sample lacking added chaperone proteins. In some experiments, HeLa cells were treated with Gamitrinibs (G1-G4) or 17-AAG (5 μM) for 24 hours, and isolated extracts were analyzed for modulation of Akt or Hsp70 expression, by Western blotting"}, "[6]": {"tested_on": "isolated tumor mitochondria", "test": "Inner membrane potential of TMRM-loaded tumor mitochondria", "format": "biochemical", "description": "(§1) The fluorescence intensity after treatment with 2 mM CaCl2 corresponded to a fully depolarized state. Alternatively, H460 cells were labeled with the fluorescent dye JC-1 (Molecular Probes), and analyzed for changes in red/green (F1-2/F1-1) fluorescence ratio after treatment with the various agents, by multiparametric flow cytometry. Cytochrome c content in pellets or supernatants of drug-treated isolated mitochondria was determined by Western blotting."}, "[7]": {"tested_on": "tumor mitochondria", "test": "Cytochrome c release from drug-treated isolated tumor mitochondria", "format": "biochemical", "description": "Tumor cell types were treated with controls or the various Hsp90 antagonists, and cytosolic extracts were harvested at increasing time intervals between 5-30 minutes and analyzed by Western blotting. For experiments in a cell-free system, purified mitochondria (20 μg) were suspended in 500 μl of SB buffer (0.2 M sucrose, 10 mM Tris-MOPS, pH 7.4, 5 mM succinate, 1 mM sodium phosphate, 10 μM EGTA-Tris, and 2 μM rotenone). […] At the end of each incubation reaction, mitochondria and supernatants were separated by centrifugation at 6,000×g for 10 minutes, and analyzed by Western blotting.\nas §1"}, "[8]": {"tested_on": "lung adenocarcinoma H460 cells", "test": "Cell viability by MTT, H460", "format": "cell-based, human", "description": "(§2) Modulation of cell viability was determined by MTT (Kang et al., “Regulation of tumor cell mitochondrial homeostasis by an organelle-specific Hsp90 chaperone network,” Cell, 131:257-270 (2007)). For determination of apoptosis, cells were analyzed for caspase activity (DEVDase activity) and plasma membrane integrity (propidium iodide) using CaspaTag (Intergen, Burlington, Mass.), by multiparametric flow cytometry (Kang et al., “Regulation of tumor cell mitochondrial homeostasis by an organelle-specific Hsp90 chaperone network,” Cell, 131:257-270 (2007))."}, "[9]": {"tested_on": "breast adenocarcinoma SKBr3 cells", "test": "Metabolic activity by MTT, SKBr3", "format": "cell-based", "conditions": "10 μM; by 48 hours and throughout a 96-hours interval", "description": "as §2"}, "[10]": {"tested_on": "SKBr3 cells", "test": "Dead cells by Trypan blue staining, SKBr3", "format": "cell-based", "conditions": "10 μM"}, "[11]": {"tested_on": "H460 lung adenocarcinoma xenograft tumors", "test": "Xenograft tumor growth, H460", "format": "in vivo, mice", "conditions": "i.p.; G4 and 17-AAG 2-3 mg/kg twice daily, G1 30-50 mg/Kg daily, TPP 10 mg/Kg daily", "description": "To create the models used in this example, HL60 (10×10^6) or H460 (4×10^6) cells suspended in sterile PBS (200 μl) were injected subcutaneously into both flanks of 10 week-old CB17 SCID/beige (Taconic Farms) immunocompromised female mice. Alternatively, MDA-MB-231 cells (5×10^6) suspended in 200 μl of 50% Matrigel (BD Biosciences) were used for subcutaneous injection in CB17 SCID/beige mice. When superficial tumors reached volumes of 100-150 mm^3, animals were randomized in two groups (2 tumors/mouse, 3 animals/group), and treated with vehicle (DMSO) or Gamitrinib dissolved in 20% Cremophor EL (Sigma) in PBS by intraperitoneal (i.p.) injection. Gamitrinib-G4 was used as sterile i.p. injections with the following schedules: HL60 xenografts, 2 mg/Kg twice daily; H460 xenografts, 2 mg/kg twice daily for d 0, 2.5 mg/kg twice daily for d 1, 3.0 mg/kg twice daily for the duration of treatment; MDA-MB-231 xenografts, 2 mg/Kg twice daily for d 0-2, 2.5 mg/Kg twice daily for d 3-5, and 3 mg/Kg twice daily throughout the rest of the treatment. 17-AAG was dissolved in 20% Cremophor EL and used as systemic i.p. injections with the same dose-escalating regimen as Gamitrinib-G4 in H460 xenograft studies. Gamitrinib-G1 was used with following schedules: 30 mg/Kg daily (d 0-2), and 50 mg/Kg daily for the rest of treatment. Gamitrinib-TPP was used as i.p. injections at 10 mg/Kg daily throughout the duration of the experiment. Tumor measurements were taken daily with a caliper, and tumor volume was calculated with the formula ([length in millimeters]×[width in millimeters]^2)/2. Mice in the various treatment groups were weighed at the beginning and at the end of each experiment."}}, "note": "“Also recorded” adds a separate entry of the source.", "data": [{"smiles": "C=CCNC1=C2C[C@@H](C)C[C@H](OC)[C@H](O)[C@@H](C)/C=C(\\C)[C@H](OC(N)=O)[C@@H](OC)/C=C\\C=C(/C)C(=O)NC(=CC1=O)C2=O", "note": "[Gamitrinib 17-AAG, 17-allylamino-demethoxygeldamycin]", "values": [{"measurement": "cytochrome c or Smac release from isolated tumor mitochondria", "setting": "[1]; HeLa cell mitochondria", "value": "did not induce cytochrome c or Smac release; also recorded: had no effect on mitochondrial integrity"}, {"measurement": "discharge of mitochondrial cytochrome c and Smac in the supernatant", "setting": "[1]; high concentrations (20 μM)", "value": "a small discharge of mitochondrial cytochrome c, but not Smac"}, {"measurement": "mitochondrial membrane potential in tumor cells", "setting": "[2]", "value": "did not affect mitochondrial membrane potential in HeLa cells"}, {"measurement": "cytochrome c release into the cytosol", "setting": "[3]", "value": "had no effect on cytochrome c release over a wide range of concentrations"}, {"measurement": "tumor cell viability / killing", "setting": "[4]; 1 hour exposure, MTT", "value": "had no effect on tumor cell viability within the same kinetics"}, {"measurement": "tumor cell killing", "setting": "[4]; prolonged exposure, 24 hours after treatment", "value": "partial cell killing; also recorded: modest anticancer activity"}, {"measurement": "expression of the chaperone Hsp70", "setting": "[5]", "value": "increased expression of the chaperone Hsp70"}, {"measurement": "levels of client proteins Chk1 and Akt", "setting": "[5]", "value": "destabilization of client proteins, Chk1 and Akt"}, {"measurement": "mitochondrial inner membrane potential", "setting": "[6]", "value": "did not affect mitochondrial membrane potential"}, {"measurement": "discharge of mitochondrial cytochrome c", "setting": "[7]; 20 minutes", "value": "ineffective"}, {"measurement": "cytochrome c release from mitochondria", "setting": "[7]; 3 hours (FIG. 16D)", "value": "had no effect on cytochrome c release"}, {"measurement": "cell viability", "setting": "[8]; 3 hour exposure", "value": "had no effect"}, {"measurement": "cell viability", "setting": "[8]; 24 hours", "value": "partial reduction in cell viability or cell proliferation"}, {"measurement": "metabolic activity", "setting": "[9]", "value": "comparably reduced metabolic activity"}, {"measurement": "tumor cell killing (dead cells)", "setting": "[10]", "value": "most SKBr3 cells treated with 17-AAG were still alive after 72 hours"}, {"measurement": "tumor growth", "setting": "[11]", "value": "had no effect on human lung cancer growth in mice"}]}]}
